ChEMBL document CHEMBL1201862, “PubChem BioAssay data set” (2004)
Calls of active or inactive are those of the source.

Columns and labels:
[1] = target: Serine/threonine-protein kinase pim-2 (Homo sapiens, UniProt Q9P1W9); type: functional;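 also: value comes from a broad kinase panel profiling study in which PIM2 was one of the panel members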
[2] = target: Serine/threonine-protein kinase PLK4 (Homo sapiens, UniProt O00444); type: functional;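 also: PLK4 measured as one member of a kinome-wide kinase profiling panel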
[3] = target: Inhibitor of nuclear factor kappa-B kinase subunit beta (Homo sapiens, UniProt O14920); type: functional
[4] = target: RAC-gamma serine/threonine-protein kinase (Homo sapiens, UniProt Q9Y243); type: functional
[5] = target: 3-phosphoinositide-dependent protein kinase 1 (Homo sapiens, UniProt O15530); type: functional;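 also: value comes from the Navigating the Kinome panel, PDPK1 member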
[6] = target: Mast/stem cell growth factor receptor Kit (Homo sapiens, UniProt P10721); type: functional;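 also: KIT entry within a kinase panel assay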
[7] = target: Interleukin-1 receptor-associated kinase 4 (Homo sapiens, UniProt Q9NWZ3); type: functional
Ephrin type-A receptor 2 = Ephrin type-A receptor 2 (Homo sapiens, UniProt P29317); type: functional;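 also: EPHA2 tested as one member of a kinome-wide kinase panel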
[8] = target: Serine/threonine-protein kinase PLK1 (Homo sapiens, UniProt P53350); type: functional;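 also: PLK1 measured as one member of a kinome-wide profiling panel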
[9] = target: Serine/threonine-protein kinase 3 (Homo sapiens, UniProt Q13188); type: functional;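 also: measured as one member of a kinome-wide kinase panel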
[10] = target: Fibroblast growth factor receptor 3 (Homo sapiens, UniProt P22607); type: functional
[11] = target: Receptor tyrosine-protein kinase erbB-4 (Homo sapiens, UniProt Q15303); type: functional;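 also: ERBB4 member of a kinome-wide kinase profiling panel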
[12] = target: Serine/threonine-protein kinase D2 (Homo sapiens, UniProt Q9BZL6); type: functional;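 also: measured against PRKD2 as one member of a kinome-wide kinase profiling panel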
[13] = target: Serine/threonine-protein kinase MRCK alpha (Homo sapiens, UniProt Q5VT25); type: functional
[14] = target: Mitogen-activated protein kinase 1 (Homo sapiens, UniProt P28482); type: functional
[15] = target: Protein kinase C gamma type (Homo sapiens, UniProt P05129); type: functional
[16] = target: 1-phosphatidylinositol 4,5-bisphosphate phosphodiesterase gamma-1 (Homo sapiens, UniProt P19174); experiment: Counterscreen for inhibitors of phospholipase C isozymes (PLC-B3): Fluorescence-based biochemical high throughput dose response assay to identify inhibitors of phospholipase C isozymes (PLC-gamma1).
[17] = target: T1, Zinc finger protein mex-5 (Caenorhabditis elegans, UniProt Q9XUB2); experiment: potency of MEX-5 RNA-binding blockers – biochemical, C. elegans, fluorescence polarization, dose response (AID 1960)
T1 sequence (Q9XUB2 whole entry): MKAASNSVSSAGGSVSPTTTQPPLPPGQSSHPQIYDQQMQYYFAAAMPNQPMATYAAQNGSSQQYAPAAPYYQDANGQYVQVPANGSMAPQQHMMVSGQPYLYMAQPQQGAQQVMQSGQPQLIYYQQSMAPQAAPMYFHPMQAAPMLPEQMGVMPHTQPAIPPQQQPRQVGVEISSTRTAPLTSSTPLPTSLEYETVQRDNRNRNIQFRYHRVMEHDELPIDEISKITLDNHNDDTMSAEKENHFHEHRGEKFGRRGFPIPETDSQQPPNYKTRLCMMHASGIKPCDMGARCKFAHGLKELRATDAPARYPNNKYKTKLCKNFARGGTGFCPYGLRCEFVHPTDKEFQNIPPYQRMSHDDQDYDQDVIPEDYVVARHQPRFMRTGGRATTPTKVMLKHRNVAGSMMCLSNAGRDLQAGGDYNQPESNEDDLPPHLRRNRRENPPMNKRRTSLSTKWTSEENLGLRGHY

[18] = fluconazole-exposed Candida albicans growth modulators – fluorescence, retest, confirmation (AID 2467); type: functional, cell-based
[19] = target: Dual specificity protein kinase CLK2 (Homo sapiens, UniProt P49760); type: functional
[20] = target: Platelet-derived growth factor receptor beta (Homo sapiens, UniProt P09619); type: functional;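 also: value comes from a kinome panel, with PDGFRB tested as one panel member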
[21] = target: cAMP-dependent protein kinase catalytic subunit PRKX (Homo sapiens, UniProt P51817); type: functional
[22] = target: Cyclin-dependent kinase 9 (Homo sapiens, UniProt P50750); type: functional;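 also: value from the CDK9 entry of a kinome-spanning kinase panel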
[23] = target: Mitogen-activated protein kinase kinase kinase kinase 4 (Homo sapiens, UniProt O95819); type: functional
[24] = target: Platelet-derived growth factor receptor alpha (Homo sapiens, UniProt P16234); experiment: Navigating the Kinome. Panel member name: PDGFRA; type: functional
[25] = target: Serine/threonine-protein kinase TBK1 (Homo sapiens, UniProt Q9UHD2); experiment: Navigating the Kinome. Panel member name: TBK1; type: functional
[26] = target: Serine/threonine-protein kinase TAO1 (Homo sapiens, UniProt Q7L7X3); type: functional
[27] = target: Casein kinase I isoform alpha (Homo sapiens, UniProt P48729); type: functional
[28] = target: Dual specificity mitogen-activated protein kinase kinase 1 (Homo sapiens, UniProt Q02750); experiment: Navigating the Kinome. Panel member name: MAP2K1; type: functional
[29] = target: Leukocyte tyrosine kinase receptor (Homo sapiens, UniProt P29376); experiment: Navigating the Kinome. Panel member name: LTK; type: functional

Serine/threonine-protein kinase TAO1, sequence (Q7L7X3 whole entry, canonical isoform): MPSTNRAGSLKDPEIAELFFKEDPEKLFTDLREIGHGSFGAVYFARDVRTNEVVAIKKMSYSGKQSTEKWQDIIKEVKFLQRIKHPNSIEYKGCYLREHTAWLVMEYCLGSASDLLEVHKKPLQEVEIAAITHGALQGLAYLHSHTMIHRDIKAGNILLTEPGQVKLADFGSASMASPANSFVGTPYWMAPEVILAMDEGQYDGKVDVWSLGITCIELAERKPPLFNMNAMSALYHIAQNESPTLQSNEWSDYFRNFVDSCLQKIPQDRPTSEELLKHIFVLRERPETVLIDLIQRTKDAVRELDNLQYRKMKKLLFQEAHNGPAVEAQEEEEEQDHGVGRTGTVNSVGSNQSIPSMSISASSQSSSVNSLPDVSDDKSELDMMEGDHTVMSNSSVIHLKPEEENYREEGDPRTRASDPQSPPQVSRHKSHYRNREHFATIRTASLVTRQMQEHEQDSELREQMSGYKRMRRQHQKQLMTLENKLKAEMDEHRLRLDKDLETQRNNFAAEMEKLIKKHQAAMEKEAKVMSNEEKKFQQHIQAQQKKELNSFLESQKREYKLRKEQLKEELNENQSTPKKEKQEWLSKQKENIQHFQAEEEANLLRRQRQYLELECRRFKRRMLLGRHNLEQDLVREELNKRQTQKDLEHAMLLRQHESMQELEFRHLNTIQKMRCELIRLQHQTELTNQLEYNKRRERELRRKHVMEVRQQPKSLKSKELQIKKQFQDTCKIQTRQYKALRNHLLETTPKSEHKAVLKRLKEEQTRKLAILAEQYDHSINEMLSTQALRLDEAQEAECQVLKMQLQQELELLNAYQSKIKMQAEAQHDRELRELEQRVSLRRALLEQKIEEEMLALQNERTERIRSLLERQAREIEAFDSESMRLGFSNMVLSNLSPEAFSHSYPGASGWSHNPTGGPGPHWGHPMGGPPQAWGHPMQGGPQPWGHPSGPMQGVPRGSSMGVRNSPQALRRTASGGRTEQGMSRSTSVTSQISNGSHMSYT
1-phosphatidylinositol 4,5-bisphosphate phosphodiesterase gamma-1, sequence (P19174 whole entry): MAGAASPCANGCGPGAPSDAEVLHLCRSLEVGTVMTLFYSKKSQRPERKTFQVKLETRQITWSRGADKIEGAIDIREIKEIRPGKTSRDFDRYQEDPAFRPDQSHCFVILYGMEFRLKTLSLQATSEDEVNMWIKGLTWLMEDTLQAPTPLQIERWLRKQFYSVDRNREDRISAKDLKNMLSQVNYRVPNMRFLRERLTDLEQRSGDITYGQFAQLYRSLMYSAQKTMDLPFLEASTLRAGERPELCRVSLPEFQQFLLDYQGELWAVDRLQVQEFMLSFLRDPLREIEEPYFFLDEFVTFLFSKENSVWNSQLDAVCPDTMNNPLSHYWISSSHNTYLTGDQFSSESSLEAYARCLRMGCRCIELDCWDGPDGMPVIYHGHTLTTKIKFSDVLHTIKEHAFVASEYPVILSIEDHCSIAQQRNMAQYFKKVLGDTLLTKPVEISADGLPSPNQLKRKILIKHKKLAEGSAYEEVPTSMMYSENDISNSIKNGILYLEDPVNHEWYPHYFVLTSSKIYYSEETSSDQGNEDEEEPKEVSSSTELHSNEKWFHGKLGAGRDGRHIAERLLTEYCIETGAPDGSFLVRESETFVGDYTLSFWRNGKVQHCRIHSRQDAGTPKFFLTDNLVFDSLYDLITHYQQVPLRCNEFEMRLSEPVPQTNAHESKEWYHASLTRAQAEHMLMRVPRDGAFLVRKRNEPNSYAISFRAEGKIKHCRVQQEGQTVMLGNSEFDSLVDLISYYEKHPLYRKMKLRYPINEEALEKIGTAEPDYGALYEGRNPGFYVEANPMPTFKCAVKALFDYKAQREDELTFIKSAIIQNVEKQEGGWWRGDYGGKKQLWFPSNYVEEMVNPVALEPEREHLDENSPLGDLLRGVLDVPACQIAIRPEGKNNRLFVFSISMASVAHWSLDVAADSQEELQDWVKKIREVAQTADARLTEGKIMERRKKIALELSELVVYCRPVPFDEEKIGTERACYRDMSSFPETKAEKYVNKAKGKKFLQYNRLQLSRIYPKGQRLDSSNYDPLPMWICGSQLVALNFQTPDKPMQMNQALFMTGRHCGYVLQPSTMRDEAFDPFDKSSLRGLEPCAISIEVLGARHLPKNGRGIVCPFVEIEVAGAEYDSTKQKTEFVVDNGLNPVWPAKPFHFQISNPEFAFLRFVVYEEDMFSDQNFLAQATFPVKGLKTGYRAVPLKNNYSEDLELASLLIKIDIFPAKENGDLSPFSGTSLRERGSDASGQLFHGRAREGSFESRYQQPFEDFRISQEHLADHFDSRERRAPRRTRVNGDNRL
cAMP-dependent protein kinase catalytic subunit PRKX, sequence (P51817 whole entry): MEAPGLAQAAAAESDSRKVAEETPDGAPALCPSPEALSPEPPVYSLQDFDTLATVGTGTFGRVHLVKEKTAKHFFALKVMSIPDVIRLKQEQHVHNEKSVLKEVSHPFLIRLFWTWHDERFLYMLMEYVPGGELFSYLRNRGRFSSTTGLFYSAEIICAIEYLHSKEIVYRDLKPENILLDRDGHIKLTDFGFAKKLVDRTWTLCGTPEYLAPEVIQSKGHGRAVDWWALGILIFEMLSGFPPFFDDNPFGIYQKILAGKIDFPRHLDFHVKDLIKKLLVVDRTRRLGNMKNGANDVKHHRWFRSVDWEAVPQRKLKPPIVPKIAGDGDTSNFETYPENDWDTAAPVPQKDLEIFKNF
Mitogen-activated protein kinase kinase kinase kinase 4, sequence (O95819 whole entry): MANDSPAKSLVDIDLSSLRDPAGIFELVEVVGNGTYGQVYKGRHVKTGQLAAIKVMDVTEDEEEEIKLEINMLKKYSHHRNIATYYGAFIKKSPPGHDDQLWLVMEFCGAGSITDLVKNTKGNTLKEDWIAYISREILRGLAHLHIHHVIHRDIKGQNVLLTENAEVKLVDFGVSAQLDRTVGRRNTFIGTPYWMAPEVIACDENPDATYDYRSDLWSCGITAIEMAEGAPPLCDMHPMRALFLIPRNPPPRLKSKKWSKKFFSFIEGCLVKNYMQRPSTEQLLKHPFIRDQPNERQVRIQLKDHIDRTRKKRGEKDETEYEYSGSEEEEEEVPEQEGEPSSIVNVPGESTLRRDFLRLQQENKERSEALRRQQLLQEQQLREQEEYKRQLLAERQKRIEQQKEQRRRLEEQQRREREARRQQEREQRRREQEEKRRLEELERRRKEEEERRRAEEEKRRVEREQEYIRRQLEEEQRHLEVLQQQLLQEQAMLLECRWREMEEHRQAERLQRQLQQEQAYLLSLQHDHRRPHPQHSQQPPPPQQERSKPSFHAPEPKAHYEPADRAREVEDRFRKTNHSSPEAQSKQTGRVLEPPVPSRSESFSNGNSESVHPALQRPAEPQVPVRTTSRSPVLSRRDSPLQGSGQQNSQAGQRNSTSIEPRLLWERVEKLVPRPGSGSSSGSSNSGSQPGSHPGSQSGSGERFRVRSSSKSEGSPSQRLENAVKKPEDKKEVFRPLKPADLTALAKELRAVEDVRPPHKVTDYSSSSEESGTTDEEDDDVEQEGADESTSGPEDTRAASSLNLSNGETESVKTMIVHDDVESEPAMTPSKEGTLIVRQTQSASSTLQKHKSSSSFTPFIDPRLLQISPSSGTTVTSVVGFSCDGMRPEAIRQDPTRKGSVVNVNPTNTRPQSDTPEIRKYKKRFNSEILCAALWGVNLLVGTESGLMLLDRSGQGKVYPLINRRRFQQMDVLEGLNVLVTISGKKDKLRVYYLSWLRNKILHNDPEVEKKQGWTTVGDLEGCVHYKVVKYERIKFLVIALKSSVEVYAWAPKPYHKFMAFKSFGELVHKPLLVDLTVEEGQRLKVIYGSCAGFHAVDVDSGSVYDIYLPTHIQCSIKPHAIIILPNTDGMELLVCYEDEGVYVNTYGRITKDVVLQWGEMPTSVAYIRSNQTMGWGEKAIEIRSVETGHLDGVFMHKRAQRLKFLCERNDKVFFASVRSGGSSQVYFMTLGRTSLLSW
Serine/threonine-protein kinase 3, sequence (Q13188 whole entry): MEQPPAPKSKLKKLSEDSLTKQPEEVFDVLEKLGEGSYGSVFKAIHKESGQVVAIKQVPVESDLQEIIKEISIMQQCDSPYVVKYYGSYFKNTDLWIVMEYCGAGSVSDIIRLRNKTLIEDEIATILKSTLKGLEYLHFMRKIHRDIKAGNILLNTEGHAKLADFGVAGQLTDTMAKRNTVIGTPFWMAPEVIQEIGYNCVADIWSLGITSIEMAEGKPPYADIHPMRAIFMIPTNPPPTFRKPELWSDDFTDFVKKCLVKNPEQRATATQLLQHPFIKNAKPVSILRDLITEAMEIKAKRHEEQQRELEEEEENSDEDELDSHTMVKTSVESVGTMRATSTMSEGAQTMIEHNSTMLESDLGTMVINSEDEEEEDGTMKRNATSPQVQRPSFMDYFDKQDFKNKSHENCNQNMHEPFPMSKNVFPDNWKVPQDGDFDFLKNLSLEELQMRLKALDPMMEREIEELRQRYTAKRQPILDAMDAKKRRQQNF
Dual specificity protein kinase CLK2, sequence (P49760 whole entry): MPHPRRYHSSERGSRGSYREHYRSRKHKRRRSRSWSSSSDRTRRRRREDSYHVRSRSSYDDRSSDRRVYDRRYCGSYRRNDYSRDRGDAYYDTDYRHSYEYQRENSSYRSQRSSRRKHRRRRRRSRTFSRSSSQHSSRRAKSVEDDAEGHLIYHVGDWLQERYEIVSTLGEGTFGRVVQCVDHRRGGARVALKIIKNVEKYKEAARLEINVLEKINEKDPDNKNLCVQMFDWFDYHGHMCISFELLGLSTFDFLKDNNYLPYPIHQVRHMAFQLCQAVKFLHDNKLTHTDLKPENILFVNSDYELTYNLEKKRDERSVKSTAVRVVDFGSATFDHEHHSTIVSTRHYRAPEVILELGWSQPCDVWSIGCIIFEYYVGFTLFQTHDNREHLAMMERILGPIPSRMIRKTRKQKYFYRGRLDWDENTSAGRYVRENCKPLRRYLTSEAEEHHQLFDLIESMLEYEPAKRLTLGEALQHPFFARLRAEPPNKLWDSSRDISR

CCOC(=O)c1cn(-c2ccc(O)cc2C)c2cc(-c3ccncc3)ccc2c1=O
active: Ki [13] 0.251 µM
inactive: Ki [1] > 1.58 µM | Ki [2] > 3.98 µM | Ki [3] > 3.16 µM | Ki [4] > 10 µM | Ki [5] > 3.98 µM | Ki [6] > 1.26 µM | Ki [7] > 10 µM | Ki (Ephrin type-A receptor 2) > 3.16 µM | Ki [8] > 7.94 µM | Ki [9] > 7.94 µM | Ki [10] > 2 µM | Ki [11] > 3.98 µM | Ki [12] > 10 µM | Ki [14] > 7.94 µM | Ki [15] > 7.94 µM

O=C(O)c1[nH]c2ccccc2c1C(c1cc(Cl)cc([N+](=O)[O-])c1O)c1c(C(=O)O)[nH]c2ccccc12
inactive: IC50 [16] 26.6 µM
active: EC50 [17] 9.16 µM

O=C1C=C(NCc2ccccc2)c2ccccc2C1=O
active: EC50 [18] 1.84 µM

Cc1cc(=O)[nH]nc1-c1ccc(NC(=O)Nc2cc(C(F)(F)F)ccc2F)c(Cl)c1
active: Ki [20] 0.158 µM | Ki [24] 0.2 µM
inactive: Ki [19] > 3.98 µM | Ki [21] > 3.16 µM | Ki [22] > 1.58 µM | Ki [23] > 5.01 µM | Ki [25] > 3.16 µM | Ki [26] > 6.31 µM | Ki [27] > 3.98 µM | Ki [28] > 3.16 µM | Ki [29] > 2.51 µM
